Experimental data as given in the supplement of paper PMC11061612.

Experiments:
[1] = compound: COc1cc2ncnc(Nc3ccc(F)c(Cl)c3)c2cc1OCCCN1CCOCC1 [Gefitinib]; settings: max 10 µM
In short: (§1)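 Cancer cell lines were seeded in 1536-well plates in 7.5 μl DMEM/F12 or RPMI with 10% FBS, held 24 hours at 37°C and 5% CO2, then dosed for 72 hours (final DMSO typically 0.2%). Viability was read by CellTiter-Glo 2.0 luminescence and scaled between blank-well and DMSO-well means. The single-agent IC50 comes from dose responses fitted to a two-parameter logistic curve with a non-linear mixed effects model.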

[2] = compound: COc1cccc2c1C(=O)c1c(O)c3c(c(O)c1C2=O)C[C@@](O)(C(=O)CO)C[C@@H]3O[C@H]1C[C@H](N)[C@H](O)[C@H](C)O1 [Doxorubicin]; settings: max 1 µM
In short: as §1

[3] = compound: C[C@@H](Oc1cc(-c2cnn(C3CCNCC3)c2)cnc1N)c1c(Cl)ccc(F)c1Cl [Crizotinib]; settings: max 10 µM
In short: as §1

[4] = compound: CC1=CN2[C@@H](C1)C=NC3=CC(=C(C=C3C2=O)OC)OCCCCCOC4=C(C=C5C(=C4)N=C[C@@H]6CC(=CN6C5=O)C)OC [SG3199]; settings: max 0.001 µM
In short: as §1

[5] = compound: CC(=O)c1c(C)c2cnc(Nc3ccc(N4CCNCC4)cn3)nc2n(C2CCCC2)c1=O [Palbociclib]; settings: max 10 µM
In short: as §1

[6] = compound: CC1(C)CCC(CN2CCN(c3ccc(C(=O)NS(=O)(=O)c4ccc(NCC5CCOCC5)c([N+](=O)[O-])c4)c(Oc4cnc5[nH]ccc5c4)c3)CC2)=C(c2ccc(Cl)cc2)C1 [Venetoclax]; settings: max 1 µM
In short: as §1

[7] = compound: CC(C)n1c(=O)n(C)c2cnc3cc(F)c(-c4ccc(OCCCN5CCCCC5)nc4)cc3c21 [AZD1390]; settings: max 0.3 µM
In short: as §1

[8] = compound: Cc1cc2ncnn2cc1Nc1ncc2c(n1)n(C1CCOCC1)c(=O)n2C [AZD7648]; settings: max 10 µM
In short: as §1

[9] = compound: COc1cccc(OCCCN)c1-c1cc(Nc2cnc(C#N)cn2)n[nH]1 [Prexasertib]; settings: max 1 µM
In short: as §1

[10] = compound: Cc1nc(-c2cn3c(n2)-c2ccc(-c4cnn(C(C)(C)C(N)=O)c4)cc2OCC3)n(C(C)C)n1 [Taselisib]; settings: max 10 µM
In short: as §1

[11] = compound: O=C(c1cc(Cc2n[nH]c(=O)c3ccccc23)ccc1F)N1CCN(C(=O)C2CC2)CC1 [Olaparib]; settings: max 10 µM
In short: as §1

[12] = compound: Cn1cnc2c(F)c(Nc3ccc(Br)cc3Cl)c(C(=O)NOCCO)cc21 [Selumetinib]; settings: max 10 µM
In short: as §1

[13] = compound: CN(C)CCCOc1ccc(-c2ccc3ncc4c(c3c2)n(C2CCOCC2)c(=O)n4C)cn1 [AZD0156]; settings: max 3 µM
In short: as §1

[14] = compound: CCc1c2c(nc3ccc(O)cc13)-c1cc3c(c(=O)n1C2)COC(=O)[C@]3(O)CC [SN-38]; settings: max 0.3 µM
In short: as §1

[15] = compound: Cc1c2c(nn1C)CSCc1cc(n(C)n1)CSc1cc(c3ccccc3c1)OCCCc1c(C(=O)O)n(C)c3c-2c(Cl)ccc13 [AZD5991]; settings: max 1 µM
In short: as §1

[16] = compound: C[C@@H](c1ccc2nccn2c1)n1nnc2ncc(-c3cnn(C)c3)nc21 [Savolitinib]; settings: max 1 µM
In short: as §1

[17] = compound: CCN(CCO)CCCOc1ccc2c(Nc3cc(CC(=O)Nc4cccc(F)c4)[nH]n3)ncnc2c1 [AZD2811]; settings: max 1 µM
In short: as §1

[18] = compound: CS(=O)(=O)CCNCc1ccc(-c2ccc3ncnc(Nc4ccc(OCc5cccc(F)c5)c(Cl)c4)c3c2)o1 [Lapatinib]; settings: max 10 µM
In short: as §1

[19] = compound: COc1nnc2ccc(N3CCC(c4ccc(OCCN5CCN(C)C(=O)[C@H]5C)cc4)CC3)nn12 [AZD5153]; settings: max 1 µM
In short: as §1

[20] = compound: CC(=O)Nc1cccc(-n2c(=O)n(C3CC3)c(=O)c3c(Nc4ccc(I)cc4F)n(C)c(=O)c(C)c32)c1 [Trametinib]; settings: max 1 µM
In short: as §1

[21] = compound: C[C@@H]1COCCN1C2=NC(=NC(=C2)C3(CC3)[S@](=N)(=O)C)C4=C5C=CNC5=NC=C4 [AZD6738]; settings: max 10 µM
In short: as §1

[22] = compound: CC1=C(C(=CC=C1)Cl)NC(=O)C2=CN=C(S2)NC3=CC(=NC(=N3)C)N4CCN(CC4)CCO [Dasatinib]; settings: max 2 µM
In short: as §1

[23] = compound: C1CN(CCC1(C(=O)N[C@@H](CCO)C2=CC=C(C=C2)Cl)N)C3=NC=NC4=C3C=CN4 [Capivasertib]; settings: max 10 µM
In short: as §1

[24] = compound: C[C@@H](Nc1cc(F)cc(F)c1)c1cc(C(=O)N(C)C)cc2c(=O)cc(N3CCOCC3)oc12 [AZD8186]; settings: max 3 µM
In short: as §1

[25] = compound: COc1cc(Nc2ncc3c(n2)-c2ccc(Cl)cc2C(c2c(F)cccc2OC)=NC3)ccc1C(=O)O [Alisertib]; settings: max 10 µM
In short: as §1

[26] = compound: C=CCn1c(=O)c2cnc(Nc3ccc(N4CCN(C)CC4)cc3)nc2n1-c1cccc(C(C)(C)O)n1 [AZD1775]; settings: max 3 µM
In short: as §1

[27] = compound: CN(CC[C@H](CSC1=CC=CC=C1)NC2=C(C=C(C=C2)S(=O)(=O)NC(=O)C3=CC=C(C=C3)N4CCC(CC4)[C@H](C5=CC=CC=C5C6=CC=C(C=C6)Cl)O)S(=O)(=O)C(F)(F)F)CCO [AZD4320]; settings: max 1 µM
In short: as §1

[28] = compound: NC1(c2ccc(-c3nc4ccn5c(=O)[nH]nc5c4cc3-c3ccccc3)cc2)CCC1 [MK-2206]; settings: max 10 µM
In short: as §1

Cell Line | IC50, cell viability 72 h [1] [µM] | IC50, cell viability 72 h [2] [µM] | IC50, cell viability 72 h [3] [µM] | IC50, cell viability 72 h [4] [µM] | IC50, cell viability 72 h [5] [µM] | IC50, cell viability 72 h [6] [µM] | IC50, cell viability 72 h [7] [µM] | IC50, cell viability 72 h [8] [µM] | IC50, cell viability 72 h [9] [µM] | IC50, cell viability 72 h [10] [µM] | IC50, cell viability 72 h [11] [µM] | IC50, cell viability 72 h [12] [µM] | IC50, cell viability 72 h [13] [µM] | IC50, cell viability 72 h [14] [µM] | IC50, cell viability 72 h [15] [µM] | IC50, cell viability 72 h [16] [µM] | IC50, cell viability 72 h [17] [µM] | IC50, cell viability 72 h [18] [µM] | IC50, cell viability 72 h [19] [µM] | IC50, cell viability 72 h [20] [µM] | IC50, cell viability 72 h [21] [µM] | IC50, cell viability 72 h [22] [µM] | IC50, cell viability 72 h [23] [µM] | IC50, cell viability 72 h [24] [µM] | IC50, cell viability 72 h [25] [µM] | IC50, cell viability 72 h [26] [µM] | IC50, cell viability 72 h [27] [µM] | IC50, cell viability 72 h [28] [µM]
TE-4 (Esophageal Squamous Cell Carcinoma) | 0.99 | > 1 | > 10 | > 0.001 | > 10 | > 1 | > 0.3 | > 10 | 0.334 | 0.381 | > 10 | > 10 | > 3 | > 0.3 | > 1 | > 1 | > 1 | 0.264 | > 1 | 0.125 | > 10 | > 2 | 2.91 | > 3 | > 10 | 1.02 | > 1 | –
UMC-11 (Other Solid Carcinomas) | > 10 | > 1 | 5.91 | > 0.001 | > 10 | > 1 | > 0.3 | > 10 | 0.0575 | > 10 | > 10 | > 10 | > 3 | > 0.3 | > 1 | > 1 | 0.103 | > 10 | 0.289 | > 1 | > 10 | > 2 | > 10 | > 3 | 1.21 | > 3 | > 1 | –
OVCAR-8 (Ovarian Carcinoma) | > 10 | 0.257 | > 10 | > 0.001 | > 10 | > 1 | > 0.3 | > 10 | 0.0134 | > 10 | > 10 | > 10 | > 3 | 0.0187 | > 1 | > 1 | > 1 | > 10 | 0.198 | > 1 | 6.14 | 1.54 | > 10 | > 3 | 7.63 | 1.37 | > 1 | –
HCC-15 (Squamous Cell Lung Carcinoma) | > 10 | > 1 | > 10 | > 0.001 | > 10 | > 1 | > 0.3 | > 10 | > 1 | > 10 | > 10 | 4.44 | > 3 | > 0.3 | > 1 | > 1 | 0.657 | > 10 | > 1 | 0.164 | > 10 | > 2 | > 10 | > 3 | 0.181 | 1.35 | 0.216 | –
CAL-51 (Breast Carcinoma) | > 10 | 0.415 | > 10 | > 0.001 | > 10 | > 1 | > 0.3 | > 10 | 0.0253 | 1.3 | > 10 | > 10 | > 3 | 0.053 | > 1 | > 1 | > 1 | > 10 | 0.469 | > 1 | 1.51 | > 2 | 4.41 | > 3 | 6.96 | 0.583 | > 1 | –
COLO-829 (Melanoma) | > 10 | > 1 | > 10 | > 0.001 | > 10 | > 1 | > 0.3 | > 10 | > 1 | > 10 | > 10 | 8.42 | > 3 | > 0.3 | > 1 | > 1 | > 1 | > 10 | > 1 | 0.279 | > 10 | 0.598 | > 10 | > 3 | > 10 | > 3 | > 1 | > 10
KYSE-410 (Esophageal Squamous Cell Carcinoma) | > 10 | > 1 | > 10 | > 0.001 | > 10 | > 1 | > 0.3 | > 10 | 0.952 | 2.71 | > 10 | > 10 | > 3 | > 0.3 | > 1 | > 1 | > 1 | 8.74 | > 1 | > 1 | > 10 | 1.9 | > 10 | > 3 | > 10 | 2.21 | > 1 | –
